The record followed here is patent publication US4136186A, “Thieno[3,2-c]pyridine derivatives” (Parcor, priority 1976, dated 1979).

Where two headings read alike, the source gives them in different places.

For assay [1], the system named is A.D.P.-induced blood-platelet aggregation. Briefly: A.D.P.-induced blood-platelet aggregation (plasma of orally treated rats). It counts as in vivo, rats of Wistar strain. To be noted: Rattus norvegicus, oral 100 mg/kg, 3 hours after treatment, 10 μM A.D.P., read-out: Percent inhibition of blood-platelet aggregation, A.D.P. How it is done:
(§1) A blood sample is taken from the jugular vein of rats of Wistar strain. From this citrated blood, and after centrifugation, is reconstituted a plasma containing 600,000 ± 20,000 platelets per mm^3 which will be used in all aggregation determinations. (a) Determination of A.D.P.-induced blood-platelet aggregation 0.4 ml plasma is placed in a siliconized tube provided with a magnetic bar, which is also siliconized. The tube is introduced into an aggregometer connected with an optical density variation recorder. When light transmission has reached a stable value, 0.5 ml of a solution containing 10 μM A.D.P. (adenosine-diphosphate) are introduced in the tube. Blood-platelet aggregation then induces an increase of light transmission followed by a decrease subsequent to the deaggregation phase. The thus determined maximum variation of optical density characterizes the intensity of the aggregation. Different groups of 20 rats are used, each group being administered orally a test derivative, at a dosage of 100 mg/kg. The results obtained in the course of tests a) and b) are tabulated in following Table I which indicates the percent inhibition of blood-plateletaggregation obtained, with respect to the control, 3 hours after treatment.

Assay [2] concerns collagen-induced blood-platelet aggregation. Briefly: Collagen-induced blood-platelet aggregation (plasma of orally treated rats). In kind it is in vivo, rats of Wistar strain. To be noted: Rattus norvegicus, oral 100 mg/kg, 3 hours after treatment, collagen (bovine tendon extract), read-out: Percent inhibition of blood-platelet aggregation, Collagen. How it is done: as §1, with “determinations.” for “determinations. (a) Determination of A.D.P.-induced blood-platelet aggregation”, “aggregation. (b) Determination of collagen-induced blood-platelet aggregation The A.D.P. solution is substituted with a collagen solution (bovine tendon extract).” for “aggregation.”

Assay [3] concerns carrageenin-induced edema. Briefly: Localised carrageenin-induced edema method. To be noted: Rattus norvegicus, rats, oral 100 mg/kg at -1, 0, 1 and 2.5 hours. It counts as in vivo. Here is the method:
(a) Localised carrageenin-induced edema method: A 1% carrageenin solution (0.1 ml) is injected in the metatarsal flexor muscles of the right hind limb of rats at time 0. The animals of the treated group are additionally administered orally 100 mg/kg of the test derivative, respectively one hour prior to and then simultaneously with the phlogogenic agent, and then one hour and 2.5 hours thereafter. The percent antiinflammatory activity, as a function of time, is determined with respect to the control group by measurements effected with a ROCH micrometer at times 0, one hour, two hours, three hours and five hours after carrageenin administration.
In general terms: In the carrageenan paw model, swelling and tenderness develop within hours.

Assay [4] concerns ovalbumin-induced systemic edema. Briefly: Ovalbumin-induced systemic edema method. In kind it is in vivo. To be noted: Rattus norvegicus, rats, oral 100 mg/kg one hour prior to and simultaneously with ovalbumin. Here is the method:
(b) Ovalbumin-induced systemic edema method Rats are administered a simultaneous intraperitoneal injection of 1 ml ovalbumin and 0.5 ml of a 1% aqueous Evans Blue solution. The animals of the treated group are additionally administered orally 100 mg/kg of the test derivative, one hour prior to and simultaneously with said ovalbumin administration. The intensity of the phenomenon thus induced is scored according to a scale from 1 to 5, according to the progress of the inflammatory syndrome. Thus are determined with respect to the control group the mean intensity and the percent decrease of the edema reaction, as a function of time. The percent anti-inflammatory activity obtained 2 hours and 3 hours, respectively, after ovalbumin injection, is tabulated in following Table III: […]

A short description of assay [5]: Potentiation of hypnotics (infrahypnotic sodium pentobarbital). It counts as in vivo. Conditions: mice, oral 50 mg/kg, thirty minutes prior to i.p. infrahypnotic sodium pentobarbital. How it is done: In addition, the compounds of the formula (I) potentiate very markedly the effect of hypnotics. Indeed, on oral administration to different groups of mice, at a dosage of 50 mg/kg, thirty minutes prior to intraperitoneal injection of an infrahypnotic dosage of sodium pentobarbital, they produce, with respect to the untreated reference animals, a marked potentiation of the barbiturate.

Turning to `CCOC(=O)c1sc2c(c1O)CN(C(=O)OCC)CC2` [Derivative n°11, 2,5-Diethoxycarbonyl-3-hydroxy-4,5,6,7-tetrahydro-thieno[3,2-c]pyridine], the inhibition in vivo at 100 mg/kg in assay [1] is 62.1%; in assay [2], 91%; in assay [3] (1 hour after carrageenin, read-out: Percent anti-inflammatory activity after 1 hour) it was 40%; in assay [3] (2 hours after carrageenin, read-out: Percent anti-inflammatory activity after 2 hours), 46%; in assay [3] (3 hours after carrageenin, read-out: Percent anti-inflammatory activity after 3 hours), 49%; in assay [3] (5 hours after carrageenin, read-out: Percent anti-inflammatory activity after 5 hours) it was 53%. For the same molecule, the inhibition in vivo at 100 mg/kg in assay [4] (2 hours after ovalbumin injection, read-out: Percent anti-inflammatory activity after 2 hours) is 51%; in assay [4] (3 hours after ovalbumin injection, read-out: Percent anti-inflammatory activity after 3 hours) it was 61%. For the same molecule, in assay [5], the “percent animals put to sleep” value came out at 60%.
